According to patent US20210196779A1, “Compositions and Methods for Treating Steroid Hormone-Related Diseases or Disorders” (YALE UNIVERSITY, priority 2018, published 2021):

Experiments:
[1] = test system: different prostate cell lines; test: Growth of different prostate cell lines, all conditions; format: cell-based; conditions: under all conditions, up to 500 ng/ml
Protocol: 20,000 cells in 1 ml of medium (phenol red free RPMI1640, 5% charcoal-dialysis FBS, 50 μg/ml Kanamyacin) were seeded per well of a 24-well plate and incubated in a 37° C. incubator with 5% CO2 overnight. […] For prostate cancer cells, DHT (25 nM) was used to stimulate androgen receptor activity. For glucocorticoid receptor overexpressed LNCaP cells, dexamethasone (50 nM) was used to stimulate glucocorticoid receptor activity. For all breast cancer cells, E2 (10 nM) was used to stimulate ER activity. Control medium without any steroid hormone was used as a control setting. After 4 days of incubation, cells were fixed and stained for 2 h with 0.5% methylene blue in 50% ethanol, followed by washing with tap water to remove unbound dye. Plates were air dried and then cells were dissolved in 1% sarkosyl (sodium lauroyl sarcosinate) by shaking at room temperature for 3 h. Cell growth was quantified based on the amount of methylene blue adsorbed by the cells as measured by a spectrophotometer (Molecular Devices) at 595 nm. All experiments were performed in triplicate wells and were repeated at least three times.

MDA-MB-453 cells = test: Cell growth assay, MDA-MB-453 breast cancer cells; format: cell-based; conditions: 4 days
Protocol: MCF7, T47D, MDA-MB-453, MDA-MB-231 breast cancer cells were grown in corning T75 cell culture flask in RPMI1640 medium supplemented with 5% FBS, 50 μg/ml Kanamycin in a 37° C., 5% CO2 incubator.
20,000 cells in 1 ml of medium (phenol red free RPMI1640, 5% charcoal-dialysis FBS, 50 μg/ml Kanamyacin) were seeded per well of a 24-well plate and incubated in a 37° C. incubator with 5% CO2 overnight. Different concentrations of herbal extract were added to each well in order to have final concentrations from 50 μg/ml to 500 μg/ml. For prostate cancer cells, DHT (25 nM) was used to stimulate androgen receptor activity. For glucocorticoid receptor overexpressed LNCaP cells, dexamethasone (50 nM) was used to stimulate glucocorticoid receptor activity. For all breast cancer cells, E2 (10 nM) was used to stimulate ER activity. Control medium without any steroid hormone was used as a control setting. After 4 days of incubation, cells were fixed and stained for 2 h with 0.5% methylene blue in 50% ethanol, followed by washing with tap water to remove unbound dye. Plates were air dried and then cells were dissolved in 1% sarkosyl (sodium lauroyl sarcosinate) by shaking at room temperature for 3 h. Cell growth was quantified based on the amount of methylene blue adsorbed by the cells as measured by a spectrophotometer (Molecular Devices) at 595 nm. […]

[2] = test system: Poly[ADP-ribose] polymerase-1 (PARP-1); test: Western blot, MCF7 cells, PARP-1; format: cell-based; conditions: 24 h
Protocol: Western blot analysis was used to determine the protein expression using protein specific antibodies.
Total cell lysis was conducted using 2×SDS sample buffer (62.5 mM Tris-HCl, 2% SDS, 10% glycerol, 50 mM DTT, and 0.05% bromophenol blue). The samples were sonicated for 10 s to shear DNA. Cell nuclei were isolated using Tris buffer saline with 0.4% NP40. Cell extracts were then electrophoresed through 10% SDS-polyacrylamide gels and transferred to 0.2 μm nitrocellulose membranes (Bio-Rad Laboratories, Hercules, Calif.) with a Miniprotein II transferring apparatus (Bio-Rad). The membranes were blocked and probed in TBS-T buffer (1×TBS buffer, 0.2% Tween 20) containing 5% non-fat milk. Monoclonal rabbit anti-AR (1:5000), was used to detect androgen receptor (Abcam #133273), Glucocorticoid Receptor (D8H2) XP® Rabbit mAb #3660, ERa Antibody (F-10): sc-8002, BRD4 (E2A7X) Rabbit mAb #13440, Brd2 (D89B4) Rabbit mAb #5848, PARP (46D11) Rabbit mAb #9532, Acetyl-Histone H3 (Lys27) (D5E4) XP® Rabbit mAb #8173 and a monoclonal actin antibody diluted 1:2500 (Sigma, St. Louis, Mo.) was used to detect β-actin as the internal control to confirm equal protein loading. […] Enhanced chemiluminescence reagents (Perkin-Elmer Life Science Products, Boston, Mass.) were used to visualize the immunoreactive bands and the densities of protein bands were scanned analyzed using ImageJ software from the NIH.

GR (stimulated with DEX) = target: T1, GR (stimulated with DEX) (Homo sapiens, UniProt P04150); test: GR driven luciferase activity (DEX) in LNCaP-GR cells; format: cell-based; conditions: LNCaP-GR luciferase reporter cells
T1 construct: expressed in transfected cells; host or cells: LNCaP (LNCaP-GR)
T1 sequence (P04150 whole entry): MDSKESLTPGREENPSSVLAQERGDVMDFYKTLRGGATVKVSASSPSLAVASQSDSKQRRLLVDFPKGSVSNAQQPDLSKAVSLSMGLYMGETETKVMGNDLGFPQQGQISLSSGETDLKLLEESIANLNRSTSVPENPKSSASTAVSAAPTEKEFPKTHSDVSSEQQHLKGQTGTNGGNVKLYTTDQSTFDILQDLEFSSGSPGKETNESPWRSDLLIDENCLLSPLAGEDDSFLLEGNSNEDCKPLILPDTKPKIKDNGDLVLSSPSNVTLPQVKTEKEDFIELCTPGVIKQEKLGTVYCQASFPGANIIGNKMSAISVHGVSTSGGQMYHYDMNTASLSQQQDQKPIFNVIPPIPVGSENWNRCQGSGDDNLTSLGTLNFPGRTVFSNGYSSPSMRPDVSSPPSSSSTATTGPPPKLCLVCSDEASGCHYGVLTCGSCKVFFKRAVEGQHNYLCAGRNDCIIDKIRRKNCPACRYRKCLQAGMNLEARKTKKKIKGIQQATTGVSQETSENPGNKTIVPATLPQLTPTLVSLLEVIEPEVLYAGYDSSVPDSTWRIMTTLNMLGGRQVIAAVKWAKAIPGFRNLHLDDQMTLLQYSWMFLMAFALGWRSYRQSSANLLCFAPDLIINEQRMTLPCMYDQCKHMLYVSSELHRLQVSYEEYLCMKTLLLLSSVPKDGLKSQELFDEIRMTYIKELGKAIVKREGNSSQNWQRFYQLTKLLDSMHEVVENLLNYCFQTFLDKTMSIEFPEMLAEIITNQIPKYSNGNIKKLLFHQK
Protocol: Both LNCaP and GR overexpressing LNCaP cells were carrying luciferase reporters with AR response elements.
Reporter cells were treated with herbal extracts at 30, 100, 300, and 1000 μg/ml for 24 h in a 37° C.-CO2 incubator. DHT (25 nM) was used to stimulate androgen receptor activity. Dexamethasone (50 nM) was used to stimulate glucocorticoid receptor activity Cells were lysed using luciferase lysis buffer after which luciferase buffer with luciferin was added to generate luminescence. Luminescence was recorded using a luminescence microplate reader.

[3] = Body weight of nude mice during the treatment; format: in vivo; conditions: equivalent dose to Y1830 (2.2 mg/kg, PO, B.I.D.), 11 days
Protocol: 22RV1 prostate cancer cells 5×10^6 cells in 100 μl Matrigel were injected subcutaneously into 10 week old male NCR nude mice. When 22RV1 tumor reached 5 mm×5 mm, mice were orally fed with Y1830 (water extract, 500 mg/kg, PO, B.I.D, N5) and RGA (or the fraction comprising RGA) (equivalent dose to Y1830: 2.2 mg/kg, PO, B.I.D.) for 11 days. Tumor volume was estimated by using the formula length×width^2/2.
When tumors reached 5 mm×5 mm, Y1830 water extract (500 mg/kg, BID, PO) and RGA (or the fraction comprising RGA) at equivalent dose to Y1830 were used to treat animals for 11 days. […] Therefore, it is further concluded that compounds other than molecules in RGA containing fraction of Y1830 total extract may also have anti-tumor activity or prevent tumor to develop drug resistant.

SMILES: Cc1c(OC2OC(CO)C(O)C(O)C2OC2OC(C)C(O)C(O)C2O)cc2c(c1O)C(=O)c1ccc(O)cc1C2=O [RG, 1,3,6-Trihydroxy-2-methyl-9,10-anthracenedione 3-O-[α-L-Rhamnopyranosyl-(1→2)-β-D-glucopyranoside]]
- inhibitory effect on cell growth (in words) [1]: did not any show inhibitory effect

SMILES: CC(=O)OCC1OC(Oc2cc3c(c(O)c2C)C(=O)c2ccc(O)cc2C3=O)C(OC2OC(C)C(O)C(O)C2O)C(O)C1O [RGA, 1,3,6-Trihydroxy-2-methyl-9,10-anthracenedione 3-O-[α-L-Rhamnopyranosyl-(1→2)-6-O-acetyl-β-D-glucopyranoside]]
- inhibition of growth of double negative MDA-MB-453 cells (MDA-MB-453 cells): inhibited the growth
- PARP-1 protein expression [2]: downregulate
- inhibition of DEX induced transcriptional response (GR (stimulated with DEX)): effectively inhibit
- animal body weight loss [3]: did not cause animal body weight loss
